This is an account of results in patent US6057311A, “Benzodiazonine derivatives binding to cholecystokinin or gastrin receptors” (James Black Foundation Limited, priority 1996, dated 2000).

One experiment addresses T1, CCKB receptor (Mus musculus, UniProt P56481).
T1 construct: The cortex was dissected, weighed and homogenised in 40 ml ice-cold buffer; tissue Charles River (animals); host or cells: cerebral cortex of male CD1 mice, membranes
T1 sequence (P56481 1-453): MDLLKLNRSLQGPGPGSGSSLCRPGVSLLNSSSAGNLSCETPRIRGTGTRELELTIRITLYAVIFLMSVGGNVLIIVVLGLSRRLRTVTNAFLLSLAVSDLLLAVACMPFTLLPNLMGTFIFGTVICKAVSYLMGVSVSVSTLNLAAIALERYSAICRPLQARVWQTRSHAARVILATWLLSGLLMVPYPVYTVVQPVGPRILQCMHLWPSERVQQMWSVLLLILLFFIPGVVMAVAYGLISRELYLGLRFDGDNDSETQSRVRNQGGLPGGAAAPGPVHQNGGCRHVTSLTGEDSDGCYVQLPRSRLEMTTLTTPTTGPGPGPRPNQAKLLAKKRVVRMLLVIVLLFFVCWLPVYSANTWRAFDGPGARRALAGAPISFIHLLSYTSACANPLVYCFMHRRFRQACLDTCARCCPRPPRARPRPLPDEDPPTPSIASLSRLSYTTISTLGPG
As to the kind of experiment: radioligand binding assay at the CCKB receptor in mouse cortical membranes ([125I]-CCK8S). As to conditions: [125I]-CCK8S 200 pM, 150 min at 21±3° C.; for Ki: pH 7.2, read-out: pKi (Mouse cortex) (converted). As to the method:
The compounds of the examples were tested for binding at the CCKB receptor in mouse cortical membranes by means of a radioligand binding assay. The procedure was as follows:
The whole brains from male mice (CD1 22-25 g; Charles River) were removed and placed in ice-cold buffer (pH7.2@21±3° C.) of the following composition (mM); 10 HEPES, 130 NaCl, 4.7 KCl, 5 MgCl2, 1 EDTA and containing 0.25 g.1^-1 bacitracin. The cortex was dissected, weighed and homogenised in 40 ml ice-cold buffer using a Teflon-in-glass homogeniser. The homogenate was centrifuged at 39,800 g for 20 min at 4° C., the supernatant discarded and the pellet resuspended by homogenisation in fresh buffer. The homogenate was recentrifuged (39,800 g; 20 min @4° C.) and the final pellet was resuspended in HEPES buffer to give a tissue concentration of 2 mg.ml^-1 (original wet weight).
The membranes (400 μl) were incubated for 150 min at 21±3° C. in a final volume of 0.5 ml with HEPES buffer containing [^125 I]-CCK8S (0.05 ml; 200 pM NEN 2200 Ci.mmol^-1) and competing compound. Total and non-specific binding of [^125 I]-CCK8S were defined using 0.05 ml of buffer and 0.05 ml of […] L-365,260, respectively. The assay was terminated by rapid filtration through pre-soaked Whatman GF/B filters using a Brandell Cell harvester. The filters were washed (3×3 ml) with ice-cold 50 mM Tris-HCl (pH7.4@4° C.) and bound radioactivity determined by counting (1 min.) in a gamma-counter.

A further experiment concerns the target T2, CCKA (Cavia porcellus, UniProt Q63931).
T2 construct: The pancreatata were removed from male guinea-pigs; from tissue; host or cells: pancreas of male Dunkin Hartley guinea pigs, membranes
T2 sequence (Q63931 1-430): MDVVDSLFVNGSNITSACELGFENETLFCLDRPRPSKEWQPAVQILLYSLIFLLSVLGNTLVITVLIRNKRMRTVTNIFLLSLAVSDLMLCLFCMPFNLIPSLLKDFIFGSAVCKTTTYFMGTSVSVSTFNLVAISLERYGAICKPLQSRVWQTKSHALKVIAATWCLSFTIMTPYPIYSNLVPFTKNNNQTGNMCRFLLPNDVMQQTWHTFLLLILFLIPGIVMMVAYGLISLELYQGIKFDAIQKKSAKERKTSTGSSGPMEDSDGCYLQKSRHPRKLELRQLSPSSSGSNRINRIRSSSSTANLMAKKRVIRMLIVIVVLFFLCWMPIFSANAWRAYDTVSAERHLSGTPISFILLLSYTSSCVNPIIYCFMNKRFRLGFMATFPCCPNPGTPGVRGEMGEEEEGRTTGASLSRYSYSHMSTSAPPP
As to the kind of experiment: CCKA binding assay, guinea pig pancreas membranes ([125I]-CCK8(S)). As to conditions: [125I]-CCK8(S) 200 pM, 0.375 μM PD134,308, 150 min at 21±3° C.; for Ki: pH 7.2, read-out: pKi (Guinea pig pancreas) (converted). As to the method: The compounds of the examples were also tested in a CCKA binding assay as follows:
The pancreatata were removed from male guinea-pigs (200-300 g; Dunkin Hartley) and placed in ice-cold HEPES buffer (pH 7.2@21±3° C.). The pancreatata were homogenised in 40 ml ice-cold HEPES buffer using a polytron (Brinkmann, PT10, setting 10) 4×1 second. The homogenate was centrifuged at 39,800 g for 15 min at 4° C. The supernatant was discarded and the pellet re-suspended using a Teflon-in-glass homogeniser in 20 volumes of fresh buffer and re-centrifuged as above. The final pellet was re-suspended using a Teflon-in-glass homogeniser to a tissue concentration of 1 mg.ml^-1 (original wet weight), and filtered through 500 μm pore-size Nytex mesh.
The membranes (400 μl; containing 0.375 μM PD134,308) were incubated for 150 minutes at 21±3° C. in a final volume of 0.5 ml with HEPES buffer containing [^125 I]-CCK8 (S) (50 μl; 200 pM) and competing compound. Total and non-specific binding of [^125 I]-CCK8 (S) were defined using 50 μl of buffer and 50 μl of 100 nM L-364,718 respectively. The assay was terminated by rapid filtration through pre-soaked Whatman GF/B filters using a Brandell Cell Harvester. The filters were washed (3×3 ml) with ice-cold 50 mM Tris HCl (pH 7.4 at 4° C.) and bound radioactivity was determined by counting (1 min) in a gamma counter.

Take `Cc1cccc(NC(=O)N2CCC(=O)c3ccccc3N(CC(=O)OC(C)(C)C)C(=O)C2)c1` [Example 1, 1-tert-butyloxycarbonylmethyl-4-(3-methylphenyl)carbamyl-2,7-dioxo-2,3,4,5,6,7-hexahydro-1H-1,4-benzodiazonine]: the Ki at CCKB receptor is 10 µM; at CCKA, 0.2 µM.

Regarding `CC(C)(C)OC(=O)CN1C(=O)CN(C(=O)Nc2ccc(Cl)c(Cl)c2)CCC(=O)c2ccccc21` [Example 2, 1-tert-butyloxycarbonylmethyl-4-(3,4-dichlorophenyl)-carbamyl-2,7-dioxo-2,3,4,5,6,7-hexahydro-1H-1,4-benzodiazonine], the Ki at CCKB receptor is 1.26 µM; on CCKA, 0.0501 µM.

Turning to `Cc1cccc(NC(=O)N2CCC(=O)c3ccccc3N(Cc3ccccc3)C(=O)C2)c1` [Example 3, 1-benzyl-4-(3-methylphenyl)carbamyl-2,7-dioxo-2,3,4,5,6,7-hexahydro-1H-1,4-benzodiazonine], the Ki on CCKB receptor was 7.94 µM; at CCKA, 0.316 µM.

In the case of `CCOC(=O)CN1C(=O)CN(C(=O)Nc2cccc(C)c2)CCC(=O)c2ccccc21` [Example 4, 1-ethoxycarbonylmethyl-4-(3-methylphenyl)carbamyl-2,7-dioxo-2,3,4,5,6,7-hexahydro-1H-1,4-benzodiazonine], the results for the Ki on CCKB receptor and at CCKA were 10 µM and 3.16 µM, respectively.

Regarding `Cc1cccc(NC(=O)N2CCC(=O)c3ccccc3NC(=O)C2)c1` [Example 5, 4-(3-methylphenyl)carbamyl-2,7-dioxo-2,3,4,5,6,7-hexahydro-1H-1,4-benzodiazonine], the results for the Ki at CCKB receptor and on CCKA were 10 µM and 5.01 µM, respectively.

For `Cc1cccc(NC(=O)N2CCC(=O)c3ccccc3N(CC(=O)N3CCCC3)C(=O)C2)c1` [Example 6, 4-(3-methylphenyl)carbamyl-2,7-dioxo-1-pyrrolidinoyl-methyl-2,3,4,5,6,7-hexahydro-1H-1,4-benzodiazonine], the results for the Ki at CCKB receptor and at CCKA were 10 µM and 5.01 µM, respectively.

With `C=C1CCN(C(=O)Nc2cccc(C)c2)CC(=O)N(Cc2ccccc2)c2ccccc21` [Example 9, 1-benzyl-7-methylene-4-(3-methylphenyl)carbamyl-2-oxo-2,3,4,5,6,7-hexahydro-1H-1,4-benzodiazonine], the Ki is 3.98 µM at CCKB receptor and 0.316 µM on CCKA.

As for `Cc1cccc(NC(=O)N2CCC(C)c3ccccc3N(Cc3ccccc3)C(=O)C2)c1` (stereo not shown) [Example 10, 1-benzyl-7-methyl-4-(3-methylphenyl)carbamyl-2-oxo-2,3,4,5,6,7-hexahydro-1H-1,4-benzodiazonine], the Ki was 2.51 µM on CCKB receptor and 0.316 µM on CCKA.

On to `CC(=O)N1[C@H](CC23CC4CC(CC(C4)C2)C3)C(=O)N(Cc2ccccc2)c2ccccc2C(=O)C[C@H]1C(=O)O` [Example 11, (3R,5S) 4-acetyl-3-[(1-adamantyl)methyl]-1-benzyl-2,7-dioxo-2,3,4,5,6,7-hexahydro-1H-1,4-benzodiazonine-5-carboxylate], for which the Ki is 1 µM at CCKB receptor and 5.01 µM on CCKA.

`CC(=O)N1[C@H](C(=O)O)CC(=O)c2ccccc2N(Cc2ccccc2)C(=O)[C@@H]1CC12CC3CC(CC(C3)C1)C2` [Example 12, (3S,5S)-4-acetyl-3-(1-adamantyl)methyl-1-benzyl-2,7-dioxo-2,3,4,5,6,7-hexahydro-1H-1,4-benzodiazonine-5-carboxylate]: the Ki at CCKB receptor and on CCKA was 10 µM in each case.

For `COc1cccc(CN2C(=O)[C@@H](CC34CC5CC(CC(C5)C3)C4)N(C(C)=O)[C@H](C(=O)O)CC(=O)c3ccccc32)c1` [Example 13, (3R,5S)-4-acetyl-3-[(1-adamantyl)methyl]-1-(3-methoxy)benzyl-2,7-dioxo-2,3,4,5,6,7-hexahydro-1H-1,4-benzodiazonine-5-carboxylate], the Ki on CCKB receptor is 2.51 µM; on CCKA, 3.16 µM.

Consider `COc1ccc(CN2C(=O)[C@@H](CC34CC5CC(CC(C5)C3)C4)N(C(C)=O)[C@H](C(=O)O)CC(=O)c3ccccc32)cc1` [Example 14, (3R,5S)-4-acetyl-3-[(1-adamantyl)methyl]-1-(4-methoxy)benzyl-2,7-dioxo-2,3,4,5,6,7-hexahydro-1H-1,4-benzodiazonine-5-carboxylate], for which the Ki is 2.51 µM at CCKB receptor and 3.16 µM at CCKA.

Regarding `CC(=O)N1[C@H](CC23CC4CC(CC(C4)C2)C3)C(=O)N(Cc2cccc(Cl)c2)c2ccccc2C(=O)C[C@H]1C(=O)O` [Example 15], the figures for the Ki on CCKB receptor and at CCKA were 1.26 µM and 1.58 µM, respectively.

Consider `CC(=O)N1[C@H](CC23CC4CC(CC(C4)C2)C3)C(=O)N(Cc2ccc(Cl)cc2)c2ccccc2C(=O)C[C@H]1C(=O)O` [Example 16, (3R,5S)-4-acetyl-3-[(1-adamantyl)methyl]-1-(4-chloro)benzyl-2,7-dioxo-2,3,4,5,6,7-hexahydro-1H-1,4-benzodiazonine-5-carboxylate], for which the figures for the Ki at CCKB receptor and at CCKA were 1.58 µM and 2 µM, respectively.

In the case of `CC(=O)N1[C@H](CC23CC4CC(CC(C4)C2)C3)C(=O)N(Cc2cccc(N)c2)c2ccccc2C(=O)C[C@H]1C(=O)O` [Example 17, (3R,5S)-4-acetyl-3-[(1-adamantyl)methyl]-1-(3-amino)benzyl-2,7-dioxo-2,3,4,5,6,7-hexahydro-1H-1,4-benzodiazonine-5-carboxylate], the Ki was 1.26 µM at CCKB receptor and 6.31 µM at CCKA.

Consider `COC(=O)[C@@H]1CC(=O)c2ccccc2N(Cc2ccccc2)C(=O)[C@@H](CC23CC4CC(CC(C4)C2)C3)N1C(C)=O` [Example 18, (3R,5S)-methyl 4-acetyl-3-[(1-adamantyl)methyl]-1-benzyl-2,7-dioxo-2,3,4,5,6,7-hexahydro-1H-1,4-benzodiazonine-5-carboxylate], for which the “pKi (Mouse cortex)” value at CCKB receptor (pH 7.2) was found to be 5.5. Besides, the “pKi (Guinea pig pancreas)” value on CCKA (pH 7.2) stood at 5.4.

In the case of `CC(=O)N1[C@H](CC(C)(C)C)C(=O)N(Cc2ccccc2)c2ccccc2C(=O)C[C@H]1C(=O)O` [Example 19, (3R,5S)-4-acetyl-1-benzyl-3-(2,2-dimethylpropyl)-2,7-dioxo-2,3,4,5,6,7-hexahydro-1H-1,4-benzodiazonine-5-carboxylate], the Ki at CCKB receptor was 7.94 µM; at CCKA, 15.8 µM.
